According to US20170008888A1 (KYORIN PHARMACEUTICAL CO., LTD., priority 2014, published 2017):

Columns and labels:
JAK1 = target: T1, JAK1 (Homo sapiens, UniProt P23458); experiment: Probe-based (AX9989) kinase profiling in Jurkat lysate: JAK1; format: binding; settings: read-out: JAK1 Inhibition % at indicated screening concentration; for inhibition at 1 µM: screening concentration 1 μM; for inhibition at 10 µM: screening concentration 10 μM
T1 construct: screened for activity against several kinases in Jurkat cells; endogenous in cells; host or cells: Jurkat cell lysate
Outline: (§1)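 Jurkat lysate (50 mM HEPES pH 7.5, 150 mM NaCl, 0.1% Triton X-100, 20 mM MnCl2) pre-incubated 15 min with compound at room temperature, then labeled with 5 μM acyl phosphate ATP probe AX9989. Tryptic probe-labeled peptides streptavidin-captured and quantified by LC/MS; percent inhibition from decreased fragment intensity versus untreated.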

AMPKa1 or AMPKa2 = experiment: Probe-based (AX9989) kinase profiling in Jurkat lysate: AMPKa1 or AMPKa2; format: binding
Outline: as §1

AurB or AurC = experiment: Probe-based (AX9989) kinase profiling in Jurkat lysate: AurB or AurC; format: binding
Outline: as §1

[1] = target: T2, recombinant human ERK5 catalytic domain (Homo sapiens, UniProt Q13164); experiment: Recombinant human ERK5 radiometric (HotSpot) assay; format: biochemical; settings: 10 μM ATP, 20 μM myelin basic protein substrate; read-out: rhERK5 IC50
T2 construct: Recombinant human ERK5 catalytic domain radiometric assays; purchased Reaction Biology, Corp (Malvern, Pa.), which ran the assay as a service
Experimental: In this example, potency of the compounds in recombinant human ERK5 was assayed.
Recombinant human ERK5 catalytic domain radiometric assays were performed by Reaction Biology, Corp (Malvern, Pa.). The HotSpot radiometric assay is based on conventional filter-binding assays (Nature Biotechnology (2011) 29: 1039-1045). Compounds were tested at 20 μM down by ⅓ in a 10 point serial dilution series. Briefly, [γ-33P]-ATP was used as the tracer along with 10 μM cold ATP to label ERK5 in the presence of 20 μM myelin basic protein substrate.

AurA = target: T3, AurA (Homo sapiens, UniProt O14965); experiment: Probe-based (AX9989) kinase profiling in Jurkat lysate: AurA; format: binding; settings: read-out: AurA Inhibition % at indicated screening concentration; for inhibition at 1 µM: screening concentration 1 μM; for inhibition at 10 µM: screening concentration 10 μM
T3 construct: screened for activity against several kinases in Jurkat cells; endogenous in cells; host or cells: Jurkat cell lysate
T3 sequence (O14965 1-403): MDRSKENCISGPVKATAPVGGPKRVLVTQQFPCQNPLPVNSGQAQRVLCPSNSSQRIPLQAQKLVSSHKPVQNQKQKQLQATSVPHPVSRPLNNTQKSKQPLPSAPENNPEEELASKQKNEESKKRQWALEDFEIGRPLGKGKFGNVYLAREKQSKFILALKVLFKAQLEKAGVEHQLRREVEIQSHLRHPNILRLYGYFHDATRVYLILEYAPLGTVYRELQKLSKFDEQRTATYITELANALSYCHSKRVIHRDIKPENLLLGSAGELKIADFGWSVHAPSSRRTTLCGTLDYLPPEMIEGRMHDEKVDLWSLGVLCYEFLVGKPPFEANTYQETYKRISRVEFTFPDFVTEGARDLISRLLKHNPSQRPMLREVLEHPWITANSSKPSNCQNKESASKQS
Outline: as §1

[2] = target: T4, BRD4 bromodomain domain I [BRD4(1)] (Homo sapiens, UniProt O60885); experiment: BRD4 bromodomain domain 1 inhibition assay (TR-FRET); format: binding; settings: for inhibition at 10 µM: screening concentration 10 μM
T4 construct: BRD4 bromodomain domain I [BRD4(1)]; purchased Cayman Chemicals
Outline: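 0.5% DMSO, in triplicate, using Cayman BRD4(1) TR-FRET protocol with slight modification. 670/620 nm ratio normalized to 10 μM JQ1, with DMSO control set as 0% inhibition.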

T1 sequence (P23458 whole entry): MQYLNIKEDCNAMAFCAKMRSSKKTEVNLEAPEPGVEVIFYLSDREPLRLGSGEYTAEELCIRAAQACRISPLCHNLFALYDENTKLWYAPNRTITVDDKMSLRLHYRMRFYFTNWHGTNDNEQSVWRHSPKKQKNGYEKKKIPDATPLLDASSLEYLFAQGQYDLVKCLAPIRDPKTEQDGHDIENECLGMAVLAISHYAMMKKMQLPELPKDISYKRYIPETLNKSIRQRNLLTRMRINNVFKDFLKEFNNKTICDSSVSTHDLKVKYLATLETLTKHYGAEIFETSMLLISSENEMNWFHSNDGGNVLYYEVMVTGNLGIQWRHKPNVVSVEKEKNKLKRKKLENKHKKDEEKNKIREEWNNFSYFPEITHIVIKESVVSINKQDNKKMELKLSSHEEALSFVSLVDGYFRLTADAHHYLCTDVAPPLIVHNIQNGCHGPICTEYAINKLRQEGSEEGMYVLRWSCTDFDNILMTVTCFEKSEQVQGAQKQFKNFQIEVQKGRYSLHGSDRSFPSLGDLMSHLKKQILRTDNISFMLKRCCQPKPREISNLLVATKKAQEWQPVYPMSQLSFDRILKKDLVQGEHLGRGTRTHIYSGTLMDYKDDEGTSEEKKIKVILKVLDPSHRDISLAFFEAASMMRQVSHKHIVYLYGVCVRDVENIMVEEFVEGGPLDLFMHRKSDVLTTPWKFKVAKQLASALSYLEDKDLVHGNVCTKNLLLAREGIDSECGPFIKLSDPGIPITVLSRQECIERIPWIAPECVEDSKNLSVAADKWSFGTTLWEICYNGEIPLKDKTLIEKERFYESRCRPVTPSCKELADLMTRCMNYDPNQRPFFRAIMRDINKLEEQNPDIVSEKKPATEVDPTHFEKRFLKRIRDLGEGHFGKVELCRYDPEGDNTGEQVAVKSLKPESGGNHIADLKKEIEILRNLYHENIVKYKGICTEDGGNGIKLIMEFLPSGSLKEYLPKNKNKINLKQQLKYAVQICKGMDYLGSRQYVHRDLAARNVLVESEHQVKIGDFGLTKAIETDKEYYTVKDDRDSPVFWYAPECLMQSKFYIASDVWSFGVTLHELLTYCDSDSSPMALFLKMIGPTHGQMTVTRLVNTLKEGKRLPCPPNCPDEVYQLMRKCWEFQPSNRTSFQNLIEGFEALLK
T2 sequence (Q13164 55-347 limits assumed): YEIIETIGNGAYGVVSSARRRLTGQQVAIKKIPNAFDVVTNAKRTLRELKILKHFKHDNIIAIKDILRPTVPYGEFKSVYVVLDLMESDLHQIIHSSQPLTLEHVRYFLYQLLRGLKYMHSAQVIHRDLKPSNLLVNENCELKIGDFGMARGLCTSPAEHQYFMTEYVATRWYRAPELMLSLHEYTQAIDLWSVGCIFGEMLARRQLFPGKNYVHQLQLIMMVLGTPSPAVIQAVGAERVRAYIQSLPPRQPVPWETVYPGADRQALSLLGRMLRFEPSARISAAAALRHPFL

| SMILES | inhibition at 1 µM (JAK1) [%] | AMPKa1 or AMPKa2 Inhibition % at indicated screening concentration (AMPKa1 or AMPKa2; screening concentration 1 μM) | AurB or AurC Inhibition % at indicated screening concentration (AurB or AurC; screening concentration 1 μM) | IC50 [1] [nM] | inhibition at 1 µM (AurA) [%] | inhibition at 10 µM [2] [%] | inhibition at 10 µM (JAK1) [%] | AMPKa1 or AMPKa2 Inhibition % at indicated screening concentration (AMPKa1 or AMPKa2; screening concentration 10 μM) | AurB or AurC Inhibition % at indicated screening concentration (AurB or AurC; screening concentration 10 μM) | inhibition at 10 µM (AurA) [%] | IC50 [2] [nM] | inhibition at 5 µM ([2]; Screening concentration 5 μM) [%] |
| --- | --- | --- | --- | --- | --- | --- | --- | --- | --- | --- | --- | --- |
| COc1cccc2c1Oc1cc(N[C@H]3CC[C@H](O)CC3)ncc1N(C)C2=O [Compound T95] |  |  |  | > 200 |  |  | ≤ 35 | D (D is >35% to ≦50%) | E (E is ≦35%) | ≤ 35 | 2000 to 5000 |  |
| CN1C(=O)c2c(F)ccc(F)c2Oc2cc(N[C@H]3CC[C@H](O)CC3)ncc21 [Compound T97] |  |  |  | > 200 |  |  | ≤ 35 | E (E is ≦35%) | E (E is ≦35%) | ≤ 35 | 2000 to 5000 |  |
| C[C@@H]1C[C@H](Nc2cc3c(cn2)N(C)C(=O)c2ccccc2N3C)CC[C@H]1O [Compound T115] |  |  |  | > 200 |  |  | ≤ 35 | E (E is ≦35%) | E (E is ≦35%) | ≤ 35 | 2000 to 5000 |  |
| CCOc1cc(C(=O)N2CCC(N3CCN(C)CC3)CC2)ccc1Nc1cc2c(cn1)N(C)C(C(F)(F)F)c1ccccc1N2C (stereo not drawn) [Compound T47] |  |  |  | > 200 |  |  | ≤ 35 | E (E is ≦35%) | E (E is ≦35%) | ≤ 35 |  |  |
| CCOc1cc(C(=O)N2CC[C@H](C#N)C2)ccc1Nc1cc2c(cn1)N(C)C(=O)c1ccccc1N2C [Compound T22] | ≤ 35 | E (E is ≦35%) | E (E is ≦35%) | 50 to 200 | ≤ 35 | < 70 |  |  |  |  |  |  |
| CN1C(=O)c2c(F)cccc2Oc2cc(N[C@H]3CC[C@H](O)CC3)ncc21 [Compound T92] |  |  |  | 50 to 200 |  |  | ≤ 35 | E (E is ≦35%) | D (D is >35% to ≦50%) | ≤ 35 | < 2000 |  |
| CC(C)Oc1cc(C(=O)N2CC[C@@H](NCCF)C2)ccc1Nc1cc2c(cn1)N(C)C(=O)c1ccccc1N2C [Compound T50] | ≤ 35 | E (E is ≦35%) | E (E is ≦35%) | 50 to 200 | ≤ 35 | > 85 |  |  |  |  |  |  |
| CCOc1cc(C(=O)N[C@H]2CC[C@@H](O)CC2)ccc1Nc1cc2c(cn1)N(C)C(=O)c1ccccc1N2C [Compound T63] | ≤ 35 | E (E is ≦35%) | E (E is ≦35%) | > 200 | ≤ 35 |  |  |  |  |  |  |  |
| CCOc1cc(C(=O)N2CCC(NCCF)C2)ccc1Nc1cc2c(cn1)N(C)C(C(F)(F)F)c1ccccc1N2C (stereo not drawn) [Compound T54] |  |  |  | > 200 |  |  | ≤ 35 | E (E is ≦35%) | E (E is ≦35%) | ≤ 35 |  |  |

The next lines start with the values.

| inhibition at 1 µM (JAK1) [%] | AMPKa1 or AMPKa2 Inhibition % at indicated screening concentration (AMPKa1 or AMPKa2; screening concentration 1 μM) | AurB or AurC Inhibition % at indicated screening concentration (AurB or AurC; screening concentration 1 μM) | IC50 [1] [nM] | inhibition at 1 µM (AurA) [%] | inhibition at 10 µM [2] [%] | inhibition at 10 µM (JAK1) [%] | AMPKa1 or AMPKa2 Inhibition % at indicated screening concentration (AMPKa1 or AMPKa2; screening concentration 10 μM) | AurB or AurC Inhibition % at indicated screening concentration (AurB or AurC; screening concentration 10 μM) | inhibition at 10 µM (AurA) [%] | IC50 [2] [nM] | inhibition at 5 µM ([2]; Screening concentration 5 μM) [%] | SMILES |
| --- | --- | --- | --- | --- | --- | --- | --- | --- | --- | --- | --- | --- |
| ≤ 35 | E (E is ≦35%) | E (E is ≦35%) | 20 to 50 | ≤ 35 | > 85 |  |  |  |  |  |  | CCOc1cc(C(=O)N2CCN(CCN(C)C)CC2)ccc1Nc1cc2c(cn1)N(C)C(=O)c1ccccc1N2C [Compound T14] |
| ≤ 35 | E (E is ≦35%) | E (E is ≦35%) | 50 to 200 | ≤ 35 | > 85 |  |  |  |  |  |  | CCOc1cc(C(=O)N2CCC(NC3CCN(C)CC3)C2)ccc1Nc1cc2c(cn1)N(C)C(=O)c1ccccc1N2C (stereo not drawn) [Compound T42] |
| ≤ 35 | E (E is ≦35%) | E (E is ≦35%) | < 20 | ≤ 35 | 70 to 85 |  |  |  |  |  |  | CCOc1cc(C(=O)N2CCN(c3cccnc3)CC2)ccc1Nc1cc2c(cn1)N(C)C(=O)c1occc1N2C [Compound T56] |
| ≤ 35 | E (E is ≦35%) | E (E is ≦35%) | < 20 | ≤ 35 | > 85 |  |  |  |  |  |  | CCOc1cc(C(=O)N2CCC(N3CCCN(C)CC3)CC2)ccc1Nc1cc2c(cn1)N(C)C(=O)c1ccccc1N2C [Compound T31] |
|  |  |  | 20 to 50 |  |  | ≤ 35 | E (E is ≦35%) | E (E is ≦35%) | ≤ 35 | < 2000 |  | CCOc1cc(C(=O)N2CCN(C3CCN(C)CC3)CC2)ccc1Nc1cc2c(cn1)N(C)C(=O)c1c(F)cccc1O2 [Compound T102] |
| ≤ 35 | E (E is ≦35%) | E (E is ≦35%) | 20 to 50 | ≤ 35 | > 85 |  |  |  |  |  |  | CCOc1cc(C(=O)N2CCN(CCN3CCOCC3)CC2)ccc1Nc1cc2c(cn1)N(C)C(=O)c1ccccc1N2C [Compound T15] |
|  |  |  | 50 to 200 |  | 70 to 85 | ≤ 35 | E (E is ≦35%) | E (E is ≦35%) | ≤ 35 |  |  | CC(C)Oc1cc(C(=O)N2CCC[C@H](O)C2)ccc1Nc1cc2c(cn1)N(C)C(=O)c1ccccc1N2C [Compound T48] |
| ≤ 35 | E (E is ≦35%) | E (E is ≦35%) | 20 to 50 | ≤ 35 | 70 to 85 |  |  |  |  |  |  | CCOc1cc(C(=O)N2CCN(C(C)=O)CC2)ccc1Nc1cc2c(cn1)N(C)C(=O)c1ccccc1N2C [Compound T18] |
| ≤ 35 | E (E is ≦35%) | E (E is ≦35%) | < 20 | ≤ 35 | > 85 |  |  |  |  |  |  | CCOc1cc(C(=O)N2CCN(C3CCN(C)CC3)CC2)ccc1Nc1cc2c(cn1)N(C)C(=O)c1ccccc1N2C [Compound T8] |
| ≤ 35 | E (E is ≦35%) | E (E is ≦35%) | 20 to 50 | ≤ 35 |  |  |  |  |  |  | > 85 | CCOc1cc(C(=O)N2CC[C@@H](N3CCN(C)CC3)C2)ccc1Nc1cc2c(cn1)N(C)C(=O)c1ccccc1N2C [Compound T20] |
| ≤ 35 | E (E is ≦35%) | E (E is ≦35%) | 20 to 50 | ≤ 35 | > 85 |  |  |  |  |  |  | CCOc1cc(C(=O)N2CCC(N3CC[C@@H](O)C3)CC2)ccc1Nc1cc2c(cn1)N(C)C(=O)c1ccccc1N2C [Compound T10] |
